# Reference: patent US20240247015A1, “PHOSPHORUS DERIVATIVES AS NOVEL SOS1 INHIBITORS” (BAYER AKTIENGESELLSCHAFT, priority 2021, published 2024)
# Target: interaction of human SOS1 (SOS1) with human K-RasG12C (Homo sapiens (Human), UniProt Q07889)
# Assay: Biochemical assay: hK-RasG12C interaction assay with hSOS1 (HTRF)
# Type: binding
# Conditions: GST-hK-RasG12C with His-hSOS1, 60 min incubation at 20° C., mean, read-out: K-RasG12C - SOS interaction assay IC50 (mean)
# Outline: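 Compounds, duplicates at 11 concentrations from 0.073 nM to 20 µM, were preincubated 2 min with 10 nM GST-hK-RasG12C, then 20 nM His-hSOS1 was added, all at 20 °C. After 60 min, 665/620 nm HTRF ratio normalized to DMSO and SOS1-free controls; IC50 by 4-parameter fit.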
# interaction of human SOS1 (SOS1) with human K-RasG12C, sequence (Q07889 564-1049 limits assumed): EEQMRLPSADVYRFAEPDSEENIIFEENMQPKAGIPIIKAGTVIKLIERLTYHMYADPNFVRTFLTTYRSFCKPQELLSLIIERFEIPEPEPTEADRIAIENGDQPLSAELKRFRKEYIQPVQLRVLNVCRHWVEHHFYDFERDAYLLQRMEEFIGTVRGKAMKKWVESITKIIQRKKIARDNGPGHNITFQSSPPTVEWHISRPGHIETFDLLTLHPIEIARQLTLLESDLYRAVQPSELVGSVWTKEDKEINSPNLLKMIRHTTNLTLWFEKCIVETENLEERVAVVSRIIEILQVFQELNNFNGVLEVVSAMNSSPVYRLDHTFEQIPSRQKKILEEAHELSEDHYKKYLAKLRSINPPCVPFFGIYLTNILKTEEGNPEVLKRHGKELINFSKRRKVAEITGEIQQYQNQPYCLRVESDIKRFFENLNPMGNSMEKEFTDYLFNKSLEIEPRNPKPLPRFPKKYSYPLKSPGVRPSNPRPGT
row,IC50 [nM],SMILES
1,5.96,Cc1nc(N[C@H](C)c2cccc(C(F)(F)F)c2Cl)c2cc(P3(=O)CCN(C(=O)C(F)F)CC3)ncc2n1 [Example 204]
2,9.64,Cc1nc(N[C@H](C)c2cccc(C(F)(F)F)c2)c2cc(P3(=O)CCN(C(=O)C(F)F)CC3)ncc2n1 [Example 205]
3,3.77,Cc1nc(N[C@H](C)c2cccc(C(F)F)c2F)c2cc(P3(=O)CCN(C(=O)C(F)F)CC3)ncc2n1 [Example 206]
4,6.84,Cc1nc(N[C@H](C)c2cccc(C(F)(F)F)c2C)c2cc(P3(=O)CCN(C(=O)C(F)F)CC3)ccc2n1 [Example 207]
